The results in this text go back to patent US20210315893A1 (Galapagos NV, priority 2017, published 2021).

Assay [1] deals with HFL-1 cells. The assay is described as follows: IL8 assay in the presence of Human Serum Albumin. The following applies: HFL1, read-out: HSA IL8 EC50.
Description: To evaluate the influence of plasma protein binding of S1P as well as compound, the S1P induced IL-8 levelswereevaluatedin presence of Human Serum Albumin (HSA, equivalent to 40% human serum).
Human Fetal Lung cells (HFL-1) are seeded in 96 well plates in growth medium (F12K+10% heat inactivated FBS+1% Pen/strep). […] On day three, compounds are added (10 point serial dilution, 30 μM highest concentration, 1/3 dilution, 0.3% DMSO final) and plates are incubated for 1 h at 37° C., 5% CO2. Subsequently S1P at 5 μM final concentration is added and plates are incubated for 16 to 24 h at 37° C., 5% COafter which the supernatant was collected. IL-8 levels in the supernatant are determined with the IL-8 ELISA of R&D systems.
Assay [2] has as its target T1, human GPCR sphingosine 1-phosphate receptor 2 (Homo sapiens, UniProt O95136).
T1 construct: host or cells: CHO
Kind of assay: S1PR2 antagonist Ca2+ flux assay. The note with it: antagonist mode, CHO-S1PR2 cells, S1P at EC80, Ca2+ fluorescence; read-out: S1P2 EC50 (nM), S1P2 antagonist EC50. It counts as cell-based. In outline: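 Antagonist mode: 15 min after compound addition, S1P (EC80) stimulates Fluo8-loaded, 1 h-starved CHO-S1PR2 cells, Ca2+ read over 3 min; a prior 3-min read checks compound agonism. EC50 from peak/baseline fluorescence ratio, normalised versus vehicle and S1P EC50 (antagonist) or EC100 (agonist).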

Assay [3] deals with T2, S1PR2 (Homo sapiens, UniProt O95136).
T2 construct: expressed in transfected cells
Kind of assay: S1PR2 binding assay (competition with radioactively labeled S1P, SpA). The following applies: membranes from stable cell line over expressing S1PR2, SpA beads; read-out: S1P2 EC50 (nM), S1PR2 binding EC50. In outline:
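Scintillation proximity read-out after 2 h room-temperature incubation of compound, [3H]S1P and S1PR2-overexpressing cell membranes on WGA-coated beads. Buffer: 20 mM Tris pH 7.5, 100 mM NaCl, 10 mM MgCl2, 1 mM Na3VO4, 0.4% fatty-acid-free BSA; plates counted immediately after centrifugation.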

The subject of assay [4] is HFL-1 cells. Kind of assay: IL-8 production assay (S1P induced IL-8). It is filed as cell-based. The note with it: Homo sapiens, HFL1; S1P (1 μM) induced IL-8 in HFL-1 cells, starvation medium without HSA; read-out: IL8 EC50. In outline: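 HFL-1 fibroblasts in low-serum medium were pretreated 1 h with a 10-point 1/3 series of compound starting at 30 μM (0.3% DMSO).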
In assay [5] the target is T3, human GPCR sphingosine 1-phosphate receptor 1 (Homo sapiens, UniProt P21453).
T3 construct: host or cells: CHO
The assay is described as follows: S1PR1 selectivity Ca2+ flux assay (antagonist readout). It is filed as cell-based. The note with it: antagonist readout, CHO cells overexpressing human S1PR1 and Gq, S1P at EC80 (6 nM); read-out: S1P1 EC50 (nM), S1P1 antagonist EC50. Put shortly: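 Antagonist mode: S1P challenge follows 15 min compound preincubation at 37 °C. Cells are CHO stably expressing human S1PR1, serum-starved 1 h (0.1% FAF BSA), loaded with Fluo 8. Peak-over-baseline fluorescence ratio is normalized to positive/negative controls; IC50 from logistic curve fit.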

Assay [6] addresses T4, human GPCR sphingosine 1-phosphate receptor 5 (Homo sapiens, UniProt Q9H228).
T4 construct: host or cells: CHO
The assay is described as follows: S1PR5 selectivity Ca2+ flux assay (antagonist readout). It counts as cell-based. The note with it: CHO cells overexpressing human S1PR5 and Gq, agonist at EC80 (20 nM), read-out: S1P5 EC50 (nM), S1P5 antagonist EC50. Put shortly:
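Antagonist readout: after 15 min compound preincubation at 37° C, human S1PR5/Gq CHO cells loaded with Fluo 8 dye received an EC80 challenge of S1PR5-specific agonist, and fluorescence was recorded for 3 min. Maximal-over-background ratios, normalized as % inhibition, gave IC50 by logistic fit.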

T2 sequence (O95136 whole entry): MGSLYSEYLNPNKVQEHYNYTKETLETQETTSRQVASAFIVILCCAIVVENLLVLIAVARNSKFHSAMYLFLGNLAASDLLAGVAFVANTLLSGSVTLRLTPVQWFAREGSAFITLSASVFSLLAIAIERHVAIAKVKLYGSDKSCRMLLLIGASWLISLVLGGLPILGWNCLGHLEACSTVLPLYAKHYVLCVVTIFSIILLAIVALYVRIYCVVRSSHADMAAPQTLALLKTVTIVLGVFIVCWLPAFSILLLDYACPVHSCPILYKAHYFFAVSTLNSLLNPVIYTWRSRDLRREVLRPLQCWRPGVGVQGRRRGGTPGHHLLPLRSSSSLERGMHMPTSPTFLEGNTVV
T1 sequence (O95136 whole entry): as above
T4 sequence (Q9H228 whole entry): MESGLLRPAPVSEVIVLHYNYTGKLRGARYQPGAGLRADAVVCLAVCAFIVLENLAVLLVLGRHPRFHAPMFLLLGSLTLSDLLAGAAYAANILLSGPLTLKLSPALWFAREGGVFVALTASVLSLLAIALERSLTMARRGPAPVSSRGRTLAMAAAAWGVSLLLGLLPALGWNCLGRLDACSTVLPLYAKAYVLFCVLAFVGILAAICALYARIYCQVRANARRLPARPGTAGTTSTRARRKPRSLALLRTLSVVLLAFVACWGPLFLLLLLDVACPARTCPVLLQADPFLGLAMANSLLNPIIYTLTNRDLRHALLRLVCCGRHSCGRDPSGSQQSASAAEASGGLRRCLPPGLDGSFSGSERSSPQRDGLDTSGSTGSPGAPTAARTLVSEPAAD
T3 sequence (P21453 whole entry): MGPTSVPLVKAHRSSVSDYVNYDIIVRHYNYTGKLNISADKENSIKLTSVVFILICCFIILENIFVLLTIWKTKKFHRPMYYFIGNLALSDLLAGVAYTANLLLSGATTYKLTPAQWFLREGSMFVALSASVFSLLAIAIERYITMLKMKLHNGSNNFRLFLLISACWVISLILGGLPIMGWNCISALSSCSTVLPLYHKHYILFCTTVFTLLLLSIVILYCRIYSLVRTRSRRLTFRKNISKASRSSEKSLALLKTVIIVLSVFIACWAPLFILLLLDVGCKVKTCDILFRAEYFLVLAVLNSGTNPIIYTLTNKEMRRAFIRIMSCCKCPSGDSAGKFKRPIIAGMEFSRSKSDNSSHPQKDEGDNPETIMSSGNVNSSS

Take `O=C(O)CN1CCC(n2nc(Cc3cn4cc(OCC5CC5)c(Cl)cc4n3)c3ccccc3c2=O)C1` (stereo not drawn) [Compound 87, 2-[3-[4-[[7-chloro-6-(cyclopropylmethoxy)imidazo[1,2-a]pyridin-2-yl]methyl]-1-oxo-phthalazin-2-yl]pyrrolidin-1-yl]acetic acid]: the EC50 in assay [1] was 324 nM; in assay [2] it was 149 nM; in assay [3], 178 nM; in assay [4], 283 nM; in assay [5], ≥ 19800 nM; in assay [6] it was 19800 nM.
On to `O=c1c2ccccc2c(Cc2nc3cc(Cl)c(OCC(F)F)cc3[nH]2)nn1C1CC1` [Compound 32, 4-[[5-chloro-6-(2,2-difluoroethoxy)-1H-benzimidazol-2-yl]methyl]-2-cyclopropyl-phthalazin-1-one], for which the EC50 in assay [1] was 2960 nM; in assay [2] it was 19.3 nM; in assay [3], 245 nM; in assay [4], 95.7 nM; in assay [5] it was ≥ 19800 nM; in assay [6] it was 6610 nM.
In the case of `O=C(Cn1nc(Cn2cc3cc(OCC4CC4)c(Cl)cc3n2)c2ccccc2c1=O)NS(=O)(=O)C1CC1` [Compound 244, 2-[4-[[6-chloro-5-(cyclopropylmethoxy)indazol-2-yl]methyl]-1-oxo-phthalazin-2-yl]-N-cyclopropylsulfonyl-acetamide], the EC50 is 808 nM in assay [1]; 8.29 nM in assay [2]; 136 nM in assay [3]; 21.3 nM in assay [4]; ≥ 19800 nM in assay [5]; 19800 nM in assay [6].
Turning to `CC(C(=O)O)n1nc(Cn2cc3cc(OCC4CC4)c(Cl)cc3n2)c2c(c1=O)CCCC2` (stereo not drawn) [Compound 93, 2-[4-[[6-chloro-5-(cyclopropylmethoxy)indazol-2-yl]methyl]-1-oxo-5,6,7,8-tetrahydrophthalazin-2-yl]propanoic acid], the EC50 in assay [1] was 22.8 nM; in assay [2] it was 8.99 nM; in assay [3], 22.4 nM; in assay [4], 3.04 nM; in assay [5], ≥ 19800 nM; in assay [6] it was 19800 nM.
With `COCCOc1cc2[nH]c(Cc3nn(CC(=O)N4CCOCC4)c(=O)c4ccccc34)nc2cc1Cl` [Compound 174, 4-[[5-chloro-6-(2-methoxyethoxy)-1H-benzimidazol-2-yl]methyl]-2-(2-morpholino-2-oxo-ethyl)phthalazin-1-one], the EC50 in assay [1] is 58.9 nM; in assay [2], 34.9 nM; in assay [3] it was 56.8 nM; in assay [4], 20.1 nM; in assay [5], ≥ 19800 nM; in assay [6], 19800 nM.
Take `O=C(Cn1nc(Cc2nc3cc(Cl)c(OCC4CC4)c(F)c3[nH]2)c2ccccc2c1=O)N1CCOCC1` [Compound 149, 4-[[5-chloro-6-(cyclopropylmethoxy)-7-fluoro-1H-benzimidazol-2-yl]methyl]-2-(2-morpholino-2-oxo-ethyl)phthalazin-1-one]: the EC50 in assay [1] is 381 nM; in assay [2], 30.4 nM; in assay [3] it was 142 nM; in assay [4], 211 nM; in assay [5], ≥ 19800 nM; in assay [6], 19800 nM.
In the case of `O=C(Cn1nc(Cc2nc3cc(OCC(F)F)c(F)cc3[nH]2)c2ccccc2c1=O)N1CCOCC1` [Compound 156, 4-[[5-(2,2-difluoroethoxy)-6-fluoro-1H-benzimidazol-2-yl]methyl]-2-(2-morpholino-2-oxo-ethyl)phthalazin-1-one], the EC50 in assay [1] is 868 nM; in assay [2] it was 59.8 nM; in assay [3] it was 647 nM; in assay [4], 593 nM; in assay [5], ≥ 19800 nM; in assay [6] it was 19800 nM.
Regarding `O=C(O)Cc1nn(Cc2cn3cc(OCC4CC4)c(Cl)cc3n2)c2cc(F)ccc2c1=O` [Compound 101, 2-[1-[[7-chloro-6-(cyclopropylmethoxy)imidazo[1,2-a]pyridin-2-yl]methyl]-7-fluoro-4-oxo-cinnolin-3-yl]acetic acid], the EC50 in assay [1] was 154 nM; in assay [2] it was 3.48 nM; in assay [3], 33.2 nM; in assay [4], 6.74 nM; in assay [5], ≥ 19800 nM; in assay [6] it was 19800 nM.
Take `CC(C(=O)O)n1nc(Cc2nc3cc(OCC4CC4)c(Cl)cc3[nH]2)c2ccccc2c1=O` (stereo not drawn) [Compound 122, 2-[4-(6-Chloro-5-cyclopropylmethoxy-1H-benzoimidazol-2-ylmethyl)-1-oxo-1H-phthalazin-2-yl]-propionic acid]: the EC50 in assay [1] is 13.3 nM; in assay [2], 13.6 nM; in assay [3], 342 nM; in assay [4], 2.29 nM; in assay [5] it was 3720 nM; in assay [6] it was 19800 nM.
As to `COc1ccc2c(Cn3cc4cc(OCC5CC5)c(Cl)cc4n3)nn(C(C)C(=O)O)c(=O)c2c1` (stereo not drawn) [Compound 97, 2-[4-[[6-chloro-5-(cyclopropylmethoxy)indazol-2-yl]methyl]-7-methoxy-1-oxo-phthalazin-2-yl]propanoic acid], the EC50 in assay [1] is 5700 nM; in assay [2] it was 53.4 nM; in assay [3] it was 432 nM; in assay [4], 60.5 nM; in assay [5], ≥ 19800 nM; in assay [6], 19800 nM.
Regarding `N#Cc1cc2nc(Cc3nn(CC(=O)O)c(=O)c4ccccc34)cn2cc1OCC1CC1` [Compound 79, 2-[4-[[7-cyano-6-(cyclopropylmethoxy)imidazo[1,2-a]pyridin-2-yl]methyl]-1-oxo-phthalazin-2-yl]acetic acid], the EC50 was 503 nM in assay [1]; 82.7 nM in assay [2]; 221 nM in assay [3]; 57.7 nM in assay [4]; ≥ 19800 nM in assay [5]; 19800 nM in assay [6].
With `NC(=O)c1ccc2c(=O)n(CC(=O)N3CCOCC3)nc(Cc3nc4cc(OCC(F)F)c(Cl)cc4[nH]3)c2c1` [compound 12, 4-[[6-chloro-5-(2,2-difluoro-ethoxy)-1H-benzimidazol-2-yl]methyl]-2-(2-morpholino-2-oxo-ethyl)-1-oxo-phthalazine-6-carboxamide], the EC50 in assay [1] was 1100 nM; in assay [2], 276 nM; in assay [3], 582 nM; in assay [4], 143 nM; in assay [5] it was ≥ 19800 nM; in assay [6] it was 19800 nM.
Regarding `O=C(Cc1nn(Cc2nc3cc(OCC(F)F)c(Cl)cc3[nH]2)c2ccccc2c1=O)N1CCOCC1` [Compound 159, 1-[6-Chloro-5-(2,2-difluoro-ethoxy)-1H-benzoimidazol-2-ylmethyl]-3-(2-morpholin-4-yl-2-oxo-ethyl)-1H-cinnolin-4-one], the EC50 in assay [1] is 14 nM; in assay [2], 9.25 nM; in assay [3], 30.7 nM; in assay [4], 1.02 nM; in assay [5], ≥ 19800 nM; in assay [6], 19800 nM.
Turning to `N#Cc1cc2[nH]c(Cn3nc(CC(=O)N4CCOCC4)c(=O)c4ccccc43)nc2cc1OCC(F)F` [Compound 49, 6-(2,2-Difluoro-ethoxy)-2-[3-(2-morpholin-4-yl-2-oxo-ethyl)-4-oxo-4H-cinnolin-1-ylmethyl]-3H-enzoimidazole-5-carbonitrile], the EC50 is 47.1 nM in assay [1]; 32.8 nM in assay [2]; 92.7 nM in assay [3]; 31.7 nM in assay [4]; ≥ 19800 nM in assay [5]; 19800 nM in assay [6].
